Measured values from the supplement of paper PMC10307832.

Columns and labels:
Assay in all cases: relative viability (nuclei count vs DMSO), 5 days (fraction); higher = more cells survive
[1] = compound: CN(C/C=C/C1=CC=C(C=C1)Cl)CC2=CC=CC=C2N(CCO)S(=O)(=O)C3=CC=C(C=C3)OC [KN-93] + C[C@]1(O)C[C@@H](c2nc(-c3ccc4ccc(-c5ccccc5)nc4c3)c3c(N)nccn32)C1 [Linsitinib] (partner 1 µM)
Procedure, shortened: (§1)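 For relative viability, nuclei counts in treated wells were divided by those in vehicle wells. Lung cancer cell lines had been pin-tool dosed in 1536-well plates the day after seeding and cultured for 5 days, then fixed and stained in one step (final 0.05% Triton X-100, 1% formaldehyde, 1 ug/ml Hoechst) and imaged at 4×. Doses were one drug alone or a fixed anchor-drug dose plus five library-drug doses (not always all listed) in √10 steps, and values are duplicate-plate medians.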

[2] = compound: CN(C/C=C/C1=CC=C(C=C1)Cl)CC2=CC=CC=C2N(CCO)S(=O)(=O)C3=CC=C(C=C3)OC [KN-93] + C[C@@H](Oc1cc(-c2cnn(C3CCNCC3)c2)cnc1N)c1c(Cl)ccc(F)c1Cl [Crizotinib] (partner 1 µM)
Procedure, shortened: as §1

[3] = compound: CN(C/C=C/C1=CC=C(C=C1)Cl)CC2=CC=CC=C2N(CCO)S(=O)(=O)C3=CC=C(C=C3)OC [KN-93] + CCNC(=O)c1noc(-c2cc(C(C)C)c(O)cc2O)c1-c1ccc(CN2CCOCC2)cc1 [Luminespib] (partner 0.01 µM)
Procedure, shortened: as §1

[4] = compound: CN(C/C=C/C1=CC=C(C=C1)Cl)CC2=CC=CC=C2N(CCO)S(=O)(=O)C3=CC=C(C=C3)OC [KN-93] + O=C(CCCCCCC(=O)Nc1ccccc1)NO [Vorinostat] (partner 1 µM)
Procedure, shortened: as §1

[5] = compound: CN(C/C=C/C1=CC=C(C=C1)Cl)CC2=CC=CC=C2N(CCO)S(=O)(=O)C3=CC=C(C=C3)OC [KN-93]
Procedure, shortened: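 For viability, nuclei in each treated well were divided by nuclei in vehicle wells and the median across plates was taken. Lung cancer cell lines in 1536-well plates were pinned with five library-drug doses (not always all listed) spaced by √10, cultured 5 days without medium change, and imaged at 4× after Hoechst staining, with plates passing only at control CV below 25% and at least one doubling.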

Cell Line	relative viability ([1]; first compound 0.08 µM)	relative viability ([1]; first compound 0.253 µM)	relative viability ([1]; first compound 2.53 µM)	relative viability ([1]; first compound 8 µM)	relative viability ([2]; first compound 0.08 µM)	relative viability ([2]; first compound 0.253 µM)	relative viability ([2]; first compound 2.53 µM)	relative viability ([2]; first compound 8 µM)	relative viability ([3]; first compound 0.08 µM)	relative viability ([3]; first compound 0.253 µM)	relative viability ([3]; first compound 2.53 µM)	relative viability ([3]; first compound 8 µM)	relative viability ([4]; first compound 0.08 µM)	relative viability ([4]; first compound 0.253 µM)	relative viability ([4]; first compound 2.53 µM)	relative viability ([4]; first compound 8 µM)	relative viability ([5]; 0.08 µM)	relative viability ([5]; 0.253 µM)	relative viability ([5]; 2.53 µM)	relative viability ([5]; 8 µM)
201T	1.04	0.968	0.995	0.837	1.01	1.05	1.01	0.973	1.04	1.16	0.958	0.697	0.875	0.958	0.873	0.698	1.03	0.85	0.958	0.684
A549	0.519	0.722	0.746	0.476	0.847	1.05	0.944	0.28	–	–	–	–	–	–	–	–	0.79	1.06	1.26	0.553
A-427	1.1	1.2	1.13	0.965	0.852	0.943	0.798	0.436	1.16	1.2	0.866	0.307	0.856	0.862	0.868	0.59	1.03	1.21	0.976	0.531
ABC-1	0.889	0.717	0.727	0.362	1.05	1.28	0.498	0.219	0.701	0.752	0.368	0.271	0.92	1.66	0.586	0.427	0.999	0.99	0.773	0.312
BEN	–	1.31	1.03	0.786	–	1.13	1.02	0.67	0.322	0.331	0.619	0.214	0.637	0.596	0.599	0.487	0.881	0.969	1.08	0.688
CAL-12T	0.926	0.766	0.694	0.729	0.623	0.834	0.531	0.339	0.208	0.27	0.573	0.336	0.833	1.01	0.783	0.687	1.09	0.983	1.09	0.744
COR-L23	0.683	1.07	0.887	0.577	0.697	0.764	0.673	0.455	0.604	1	0.978	0.424	0.448	0.46	0.509	0.402	0.848	1.09	1.08	0.665
COR-L 105	0.811	0.878	1.15	0.784	0.696	0.873	0.807	0.436	0.765	0.869	0.675	0.739	0.632	0.824	0.551	0.836	1.02	0.932	0.808	0.682
ChaGo-K-1	–	–	–	–	1.12	1.23	1.11	0.722	0.589	0.712	0.699	0.462	0.755	0.896	0.822	0.582	0.887	1.14	0.999	0.72
EKVX	0.959	0.872	1.03	0.748	0.642	0.995	0.81	0.719	0.998	0.977	0.895	0.714	0.642	0.653	0.655	0.585	0.839	0.768	1.04	0.691
EMC-BAC-2	0.821	1	0.878	0.775	0.773	0.792	0.772	0.573	1.07	1.27	1.18	0.901	0.51	0.534	0.399	0.345	1.05	1.04	1.08	0.794
EPLC-272H	1.15	1.27	1.21	0.871	1.05	1.01	1.04	0.661	0.438	0.183	0.266	0.173	0.436	0.212	0.274	0.152	0.899	0.965	0.92	0.59
H3255	0.802	1.09	1.08	0.584	0.995	0.952	0.48	0.623	0.85	0.97	0.774	0.776	0.842	0.76	0.927	0.311	1.03	0.992	0.969	0.666
HARA	0.84	1.11	0.923	0.527	1.04	1.51	0.946	0.51	0.659	1.15	0.449	0.284	0.394	0.475	0.503	0.493	0.871	0.943	0.827	0.565
HCC-15	0.85	1	0.802	0.728	0.664	0.961	0.795	0.682	0.297	0.319	0.504	0.279	0.773	0.877	0.932	0.738	0.862	1.03	1.08	0.893
HCC-44	0.616	0.613	0.667	0.462	0.732	0.785	0.858	0.502	1.28	1.01	1.12	0.752	1.13	1.1	1.12	0.915	1.02	0.912	1.12	0.764
HCC-78	0.489	0.507	0.549	0.374	0.336	0.312	0.37	0.312	–	–	–	–	0.465	0.405	0.739	0.381	0.941	0.828	1.04	0.744

Cell Line	relative viability ([1]; first compound 0.08 µM)	relative viability ([1]; first compound 0.253 µM)	relative viability ([1]; first compound 2.53 µM)	relative viability ([1]; first compound 8 µM)	relative viability ([2]; first compound 0.08 µM)	relative viability ([2]; first compound 0.253 µM)	relative viability ([2]; first compound 2.53 µM)	relative viability ([2]; first compound 8 µM)	relative viability ([3]; first compound 0.08 µM)	relative viability ([3]; first compound 0.253 µM)	relative viability ([3]; first compound 2.53 µM)	relative viability ([3]; first compound 8 µM)	relative viability ([4]; first compound 0.08 µM)	relative viability ([4]; first compound 0.253 µM)	relative viability ([4]; first compound 2.53 µM)	relative viability ([4]; first compound 8 µM)	relative viability ([5]; 0.08 µM)	relative viability ([5]; 0.253 µM)	relative viability ([5]; 2.53 µM)	relative viability ([5]; 8 µM)
HCC-366	–	0.706	0.844	0.334	–	0.609	0.68	0.129	–	–	–	–	0.301	0.251	0.514	0.168	0.835	1.1	1.11	0.863
HCC-827	1.02	0.921	0.939	0.875	0.993	0.996	0.908	0.778	0.642	0.836	0.496	0.465	0.929	0.874	0.793	0.777	1.08	1.05	1.05	0.851
HOP-62	0.938	1.15	1.12	0.982	0.936	1.09	1.15	0.952	0.842	1.13	0.995	0.903	0.557	0.824	0.748	0.487	1.06	1.07	1.17	0.733
IA-LM	0.608	0.495	0.463	0.827	0.745	0.822	0.975	0.431	–	–	–	–	0.428	1.02	0.982	1.05	0.896	0.948	1.47	0.875
LC-2-ad	0.824	0.906	0.856	0.566	0.453	0.459	0.474	0.43	1.11	1.15	0.94	0.818	0.688	0.801	0.746	0.582	0.965	1.16	0.995	0.725
LCLC-97TM1	0.162	–	0.2	0.142	0.321	–	0.379	0.255	0.717	0.845	0.849	0.714	0.629	0.723	0.637	0.437	0.975	1.29	1.09	0.601
LCLC-103H	1.17	1.05	0.963	0.877	1.06	1.13	1.08	0.776	0.948	1.22	1.04	0.756	0.782	0.768	0.658	0.573	0.869	1.14	0.945	0.812
LK-2	0.605	0.609	0.634	0.479	0.214	0.199	0.216	0.27	0.225	0.176	0.212	0.174	0.241	0.279	0.426	0.19	1.07	1.17	1.37	0.846
NCI-H522	–	–	–	–	–	–	–	–	1.28	1.4	1.39	1.11	0.886	0.966	0.857	0.858	1.04	0.986	1.04	0.783
NCI-H1395	1.66	1.13	1.07	0.427	–	–	–	–	0.631	0.619	0.664	0.604	0.844	0.721	0.559	0.432	0.965	0.969	0.914	0.571
NCI-H1563	1.22	1.2	1.02	0.934	0.875	0.845	0.643	0.601	0.625	0.483	0.577	0.517	–	–	–	–	0.967	0.936	0.88	0.758
NCI-H1650	–	–	–	–	0.874	1.01	1.15	0.547	0.182	0.187	0.208	0.19	0.468	0.503	0.541	0.431	0.796	0.808	0.941	0.569
NCI-H1703	1.14	–	0.976	0.389	0.677	1.03	0.911	0.225	–	–	–	–	–	–	–	–	0.871	0.89	0.841	0.459
NCI-H1792	–	0.573	0.567	0.394	–	1.1	0.976	0.914	0.272	0.396	0.31	0.367	–	–	–	–	0.783	0.83	0.948	0.703
NCI-H1793	–	1.18	0.925	0.673	–	–	–	–	0.193	0.179	0.195	0.166	0.882	0.565	0.89	0.249	0.742	0.984	1.11	0.264
NCI-H2170	–	–	–	–	1.13	1.66	1.42	0.931	0.785	0.852	0.963	0.483	0.717	0.907	0.932	0.522	0.761	1.03	1.01	0.676
SW 900	–	–	–	–	–	–	–	–	0.166	0.178	0.145	0.182	0.592	0.333	0.624	0.192	0.9	0.704	1	0.508
